Several values for one entry are separate records, joined by “and”; a condition that tells them apart may be missing. Identical values can stand only once.
What was measured:
Nonstructural protein 3 [1] = target: T1, Nonstructural protein 3 (Zika virus, UniProt A0A024AXB9); assay: (§1) Functional biochemical assay to identify treatments for viral infectious disease that targets Zika NS2B-NS3 protease. Utilizing a direct enzyme activity measurement method, reading the fluorescence intensity is used to characterize the relative potency of inhibitors as IC50. Synthetic construct has been made based on Zika virus (strain PRVABC59) by Centre for Medicines Discovery, University of Oxford, and the assay has been performed by Stanford University.The protocol is publicly available: dx.doi.org/10.17504/protocols.io.x54v9r83zv3e/v1
T1 sequence (A0A024AXB9 whole entry): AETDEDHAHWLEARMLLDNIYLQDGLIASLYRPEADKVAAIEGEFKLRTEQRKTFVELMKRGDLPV

Nonstructural protein 3 [2] = target: T1, Nonstructural protein 3; assay: Functional biochemical assay to identify treatments for viral infectious disease that targets Zika NS2B-NS3 protease. Utilizing a direct enzyme activity measurement method, reading the fluorescence intensity is used to characterize the relative potency of inhibitors as IC50.; design: species or system PRVABC59
Nonstructural protein 3 [3] = target: T1, Nonstructural protein 3; assay: as §1, with “Enamine biological services, Bienta Ltd.The” for “Stanford University.The”, “dx.doi.org/10.17504/protocols.io.36wgqn273gk5/v1” for “dx.doi.org/10.17504/protocols.io.x54v9r83zv3e/v1”

Row | Structure (SMILES) | IC50 (Nonstructural protein 3 [1]) | IC50 (Nonstructural protein 3 [2]) | IC50 (Nonstructural protein 3 [3])
1 | Nc1ccc2ccc(B(O)O)cc2c1 | 2500 nM | > 99500 nM | 
2 | Cc1cc(NS(=O)(=O)c2ccc(S(=O)(=O)F)cc2)c[nH]c1=O | 13100 nM |  | 
3 | CN(C)c1ccc(C=C(C#N)C(N)=O)cc1 | 31000 nM |  | 
4 | O=Cc1ccc(N2CCC(C(=O)O)CC2)cc1 | 53700 nM |  | 
5 | CC[C@H]1CO[C@H](C)CN1c1ccc(C=O)cn1 | 43000 nM |  | 
6 | O=Cc1ccc(N2CCCCCC2)cc1 | 65800 nM |  | 
7 | O=Cc1nc(-c2ccccc2Cl)n2ccccc12 | 46300 nM |  | 
8 | NCc1cccc(NC(=O)c2cccc3c2CC(=O)N3)c1 |  | 1540 nM | 2320 nM
9 | CN(C)C(=O)C[C@H]1NCc2cc(NC(=O)c3cc(F)cc4[nH]ncc34)ccc21 |  | 487 nM | 502 nM and 1320 nM
10 | NC(=O)c1cn(C2CCCC2)nc1NC(=O)c1cccc2c1CC(=O)N2 |  | > 25000 nM | > 25000 nM
11 | CCc1cnc2c(NC(=O)c3cccc4c3CC(=O)N4)cnn2c1 |  | > 25000 nM | > 25000 nM
12 | Cc1c(C=O)c2ccccn2c1C(=O)c1ccncc1 | 36400 nM |  | 
13 | Cc1c(C(=O)Nc2ccc3c(c2)CCC(=O)N3CC2CCC2)cc(C2CC2)n1C |  | > 25000 nM | > 25000 nM
14 | Clc1cc(CNc2ncc3c(n2)CNC3)c2cn[nH]c2c1 |  | > 25000 nM | > 25000 nM
15 | CS(=O)(=O)c1cncc(-c2cc(F)cc(C(=O)Nc3ccc4c(c3)CNC4)c2)c1 |  | 88 nM and 77 nM | 158 nM
16 | C[C@H](NC(=O)c1cccc2c1CC(=O)N2)c1nnc2n1CCCC2 |  | > 25000 nM | > 25000 nM
17 | N#CCOc1ccc(Br)cc1[C@H](Nc1ccc2c(c1)CNC2)C(=O)NCC(F)F |  | 57 nM and 42 nM | 135 nM and 143 nM
18 | CC(C)NC(=O)C[C@H]1NCc2cc(NC(=O)c3cc(Cl)cc4[nH]ncc34)ccc21 |  | 185 nM | 1060 nM and 2300 nM
19 | O=C(NCC(F)F)[C@H](Nc1ccc2c(c1)CNC2)c1cc(Cl)cc2cccnc12 |  | 16 nM | 53 nM and 76 nM
20 | C=C(C)c1ccc(Cl)cc1[C@H](Nc1ccc2c(c1)CNC2)C(=O)NCC(F)F |  | 297 nM | 320 nM and 334 nM
21 | O=Cc1ccc(N2CCCCC2)cc1 | 49800 nM |  | 
22 | O=C(NCC(F)F)[C@H](Nc1cnc2c(c1)CNC2)c1cc(Cl)cc(C2CC2)c1 |  | 20 nM and < 12 nM | 114 nM and 107 nM
23 | CNC(=O)c1cc(Br)cc([C@H](Nc2ccc3c(c2)CNC3)C(=O)NCC(F)F)c1 |  | 19 nM and < 12 nM | 104 nM and 88 nM
24 | CNC(=O)C[C@H]1NCc2cc(NC(=O)c3cc(Cl)cc4[nH]ncc34)ccc21 |  | 187 nM | 999 nM and 1080 nM
25 | Cc1c(C(=O)Nc2ccc3c(c2F)CCN(C)C3=O)cc(C2CC2)n1C |  | > 25000 nM | > 25000 nM
26 | Clc1cc(CNc2ccc3c(n2)CNC3)c2cn[nH]c2c1 |  | > 25000 nM | > 25000 nM

Row | Structure (SMILES) | IC50 (Nonstructural protein 3 [1]) | IC50 (Nonstructural protein 3 [2]) | IC50 (Nonstructural protein 3 [3])
27 | O=C1Cc2c(cccc2C(=O)Nc2cnn(Cc3ccncc3)c2)N1 |  | > 25000 nM | > 25000 nM
28 | COCCN(C)C(=O)[C@H](Nc1ccc2c(c1)CNC2)c1cc(Cl)cc(C2CC2)c1 |  | 1210 nM | 4620 nM
29 | O=C(Nc1ccc2c(c1)CN[C@H]2C1CC1)c1cc(F)cc2[nH]ncc12 |  | 215 nM | 255 nM and 550 nM
30 | O=C(NCC(F)F)[C@H](Nc1ccc2c(n1)CNC2)c1cc(Cl)cc(C2CC2)c1 |  | 1330 nM | 5500 nM
31 | C[C@]1(S(C)(=O)=O)C(=O)Nc2cc(F)cc(C(=O)Nc3ccc4c(c3)CNC4)c21 |  | 3990 nM | 7760 nM and 9210 nM
32 | O=C(Nc1ccc2c(c1)CNC2)c1cccc2c(C3CNC3)n[nH]c12 |  | 17 nM and 16 nM and < 12 nM | 89 nM
33 | O=Cc1ccc(N2CCC(C(=O)O)CC2)o1 | 30400 nM |  | 
34 | C[C@H]1NCc2cc(NC(=O)c3cc(F)cc4[nH]ncc34)ccc21 |  | 488 nM | 646 nM and 1460 nM
35 | N#CCc1cc(NC(=O)c2cc(F)cc3[nH]ncc23)cc2c1CNC2 |  | 16 nM and < 12 nM | 70 nM and 79 nM
36 | CC(=O)N(c1ccc2c(c1)CNC2)[C@]1(c2cc(Cl)cc(C3CC3)c2)CN(C)C1=O |  | 22700 nM | > 25000 nM
37 | CC(=O)N(c1ccc2c(c1)CNC2)[C@]1(c2cc(Cl)cc(C3CC3)c2)CCCN(C)C1=O |  | > 25000 nM | > 25000 nM
38 | COc1ccc(-c2nc3c(C(=O)Nc4ccc5c(c4)CNC5)cc(F)cc3[nH]2)nn1 |  | 23 nM (2×) and 14 nM and 27 nM | 90 nM and 98 nM
39 | O=C([C@H](Nc1ccc2c(c1)CNC2)c1cc(Cl)cc(C2CC2)c1)N1CCOCC1 |  | 401 nM | 2100 nM
40 | Cc1c(C=O)c2ccccn2c1C#N | 24900 nM |  | 
41 | O=C1Cc2c(cccc2C(=O)Nc2ccc3c(c2)CCNCC3)N1 |  | 1230 nM | 2110 nM
42 | O=C(O)COc1ccc(Cl)cc1[C@H](Nc1ccc2c(c1)CNC2)C(=O)NCC(F)F |  | 182 nM | 260 nM
43 | NCc1csc2cc(C(=O)Nc3ccc4c(c3)CNC4)ccc12 |  | 125 nM and 219 nM | 216 nM
44 | CN(C)C(=O)C[C@H]1NCc2cc(NC(=O)c3cc(Cl)cc4[nH]ncc34)ccc21 |  | 481 nM | 2120 nM and 2360 nM
45 | COC(=O)[C@H]1NCc2cc(NC(=O)c3cc(F)cc4[nH]ncc34)ccc21 |  | 4840 nM | 21500 nM
46 | Cc1nc(C=O)c2ccccn12 | 64500 nM |  | 
47 | CO[C@H]1Cc2ccc(NC(=O)c3cc(C4CC4)n(C)c3C)cc2C1 |  | > 25000 nM | > 25000 nM
48 | Cc1c(C(=O)Nc2ccc3c(c2)C[C@H](C(N)=O)O3)cc(C2CC2)n1C |  | > 25000 nM | > 25000 nM
49 | O=C(Nc1ccc2c(c1)CN[C@H]2C(=O)O)c1cc(F)cc2[nH]ncc12 |  | 1330 nM | 3180 nM and 3280 nM
50 | O=C(NCC(F)F)[C@H](Nc1ccc2c(c1)CNC2)c1cc(Br)cc2ccccc12 |  | 99 nM and 77 nM | 143 nM and 147 nM
51 | O=C1Cc2c(cccc2C(=O)Nc2nnc3n2CCCS3)N1 |  | > 25000 nM | > 25000 nM
